Test results as given in the SangsterLogP compilation.

Assay: method code SF-AS, from DOI: 10.2175/106143002x139965, PMID: 12150246

Row | SMILES | logP
1 | Clc1cccc(Br)c1Cl | 4.61
2 | N#Cc1ccc(Cl)cc1 | 2.24
3 | Fc1ccc(Cl)cc1Cl | 3.38
4 | Nc1ccc([N+](=O)[O-])cc1Cl | 2.14
5 | Nc1ccc(Cl)c(Cl)c1 | 2.55
6 | O=[N+]([O-])c1ccc(Cl)c([N+](=O)[O-])c1 | 2.18
7 | Clc1ccc(I)cc1 | 4.12
8 | Clc1cccc(I)c1Cl | 4.93
9 | Fc1c(Cl)cccc1Cl | 3.38
10 | Nc1c(Cl)cc([N+](=O)[O-])cc1Cl | 2.84
11 | Nc1ccc(F)cc1Cl | 2.04
12 | Nc1ccc(Cl)cc1[N+](=O)[O-] | 2.56
13 | O=[N+]([O-])c1cc(Cl)ccc1O | 2.48
14 | Clc1cccc(Cl)c1Br | 4.17
15 | Nc1cc([N+](=O)[O-])ccc1Cl | 2.2
